{"source": "patent US20170190671A1", "about": "“BIS(ARYL)CATECHOL DERIVATIVES AS HERBICIDES” (E I DU PONT DE NEMOURS AND COMPANY, priority 2014, published 2017)", "format_in_all_cases": "in vivo", "key": {"[1]": {"tested_on": "giant foxtail (Setaria faberii)", "assay": "Test A postemergence", "conditions": "Setaria faberi, post-emergence, 240 h, 0 to 100 scale, read-out: Plant response rating, Foxtail, Giant", "outline": "(§1)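 Greenhouse pot test, loam/sand soil. Formulation: non-phytotoxic solvent mix plus surfactant. Pre: directed spray onto soil after sowing. Post: plants at 1–2 leaf, 2–10 cm. Rated visually vs untreated controls at ~10 d, 0 (no effect) to 100 (complete control).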"}, "[2]": {"tested_on": "galium (catchweed bedstraw, Galium aparine)", "assay": "Test A postemergence", "conditions": "Galium, post-emergence, 240 h, 0 to 100 scale, read-out: Plant response rating, Galium", "outline": "as §1"}, "[3]": {"tested_on": "ragweed (common ragweed, Ambrosia elatior)", "assay": "Test A postemergence", "conditions": "Ambrosia artemisiifolia, post-emergence, 240 h, 0 to 100 scale, read-out: Plant response rating, Ragweed", "outline": "as §1"}, "[4]": {"tested_on": "blackgrass (Alopecurus myosuroides)", "assay": "Test A postemergence", "conditions": "Alopecurus myosuroides, post-emergence, 240 h, 0 to 100 scale, read-out: Plant response rating, Blackgrass", "outline": "as §1"}, "corn (Zea mays)": {"tested_on": "corn (Zea mays)", "assay": "Test A postemergence", "conditions": "Zea mays, post-emergence, 240 h, 0 to 100 scale", "outline": "as §1"}, "[5]": {"tested_on": "Italian ryegrass (Lolium multiflorum)", "assay": "Test A postemergence", "conditions": "Lolium multiflorum, post-emergence, 240 h, 0 to 100 scale, read-out: Plant response rating, Ryegrass, Italian", "outline": "as §1"}, "[6]": {"tested_on": "pigweed (Amaranthus retroflexus)", "assay": "Test A postemergence", "conditions": "Amaranthus retroflexus, post-emergence, 240 h, 0 to 100 scale, read-out: Plant response rating, Pigweed", "outline": "as §1"}, "[7]": {"tested_on": "wheat (Triticum aestivum)", "assay": "Test A postemergence", "conditions": "Triticum aestivum, post-emergence, 240 h, 0 to 100 scale, read-out: Plant response rating, Wheat", "outline": "as §1"}, "[8]": {"tested_on": "barnyardgrass (Echinochloa crus-galli)", "assay": "Test A postemergence", "conditions": "Echinochloa crus-galli, post-emergence, 240 h, 0 to 100 scale, read-out: Plant response rating, Barnyardgrass", "outline": "as §1"}, "kochia (Kochia scoparia) [9]": {"tested_on": "kochia (Kochia scoparia)", "assay": "Test A postemergence", "conditions": "Bassia scoparia, post-emergence, 240 h, 0 to 100 scale, read-out: Plant response rating, Kochia", "outline": "as §1"}, "[10]": {"tested_on": "lambsquarters (Chenopodium album)", "assay": "Test C preemergence", "conditions": "Chenopodium album, pre-emergence, 336 h, scale 0 to 100, read-out: Plant response rating, Lambsquarters", "outline": "(§2)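 Visual ratings were made 13-15 days after treatment in the greenhouse, scored 0-100 against controls, where 100 means complete control. Treatments used a surfactant-containing non-phytotoxic solvent formulation, applied preemergence to seeds in loam-sand soil or postemergence to 2-18 cm plants (1-4 leaves) in peat-based medium.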"}, "[11]": {"tested_on": "barnyardgrass (Echinochloa crus-galli)", "assay": "Test C preemergence", "conditions": "Echinochloa crus-galli, pre-emergence, read-out: Plant response rating, Barnyardgrass", "outline": "as §2"}, "[12]": {"tested_on": "giant foxtail (Setaria faberii)", "assay": "Test A preemergence", "conditions": "Setaria faberi, pre-emergence, 240 h, 0 to 100 scale (0 no effect, 100 complete control), read-out: Foxtail, Giant plant response rating", "outline": "as §1"}, "[13]": {"tested_on": "ragweed (common ragweed, Ambrosia elatior)", "assay": "Test A preemergence", "conditions": "Ambrosia artemisiifolia, pre-emergence, 240 h, 0 to 100 scale (0 no effect, 100 complete control), read-out: Ragweed plant response rating", "outline": "as §1"}, "[14]": {"tested_on": "Italian ryegrass (Lolium multiflorum)", "assay": "Test A preemergence", "conditions": "Lolium multiflorum, pre-emergence, 240 h, 0 to 100 scale (0 no effect, 100 complete control), read-out: Ryegrass, Italian plant response rating", "outline": "as §1"}, "[15]": {"tested_on": "pigweed (Amaranthus retroflexus)", "assay": "Test A preemergence", "conditions": "Amaranthus retroflexus, pre-emergence, 240 h, 0 to 100 scale (0 no effect, 100 complete control), read-out: Pigweed plant response rating", "outline": "as §1"}, "[16]": {"tested_on": "barnyardgrass (Echinochloa crus-galli)", "assay": "Test A preemergence", "conditions": "Echinochloa crus-galli, pre-emergence, 240 h", "outline": "as §1"}, "kochia (Kochia scoparia) [17]": {"tested_on": "kochia (Kochia scoparia)", "assay": "Test A preemergence", "conditions": "Bassia scoparia, pre-emergence, 240 h, 0 to 100 scale (0 no effect, 100 complete control), read-out: Kochia plant response rating", "outline": "as §1"}, "[18]": {"tested_on": "sedge, umbrella (small-flower umbrella sedge, Cyperus difformis)", "assay": "Test B flooded paddy", "conditions": "Cyperus difformis, 336 h; 250 g ai/ha, Flood, 13 to 15 days, scale 0 (no effect) to 100 (complete control); read-out: Plant response rating, Sedge, Umbrella", "outline": "(§3)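 Greenhouse pots flooded to 3 cm above soil at time of treatment received compound via the water, which stayed at that level.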"}, "[19]": {"tested_on": "ducksalad (Heteranthera limosa)", "assay": "Test B flooded paddy", "conditions": "Heteranthera limosa, 336 h; 250 g ai/ha, Flood, 13 to 15 days, scale 0 (no effect) to 100 (complete control); read-out: Plant response rating, Ducksalad", "outline": "as §3"}, "[20]": {"tested_on": "barnyardgrass (Echinochloa crus-galli)", "assay": "Test B flooded paddy", "conditions": "Echinochloa crus-galli, 336 h; 250 g ai/ha, Flood, 13 to 15 days, scale 0 (no effect) to 100 (complete control); read-out: Plant response rating, Barnyardgrass", "outline": "as §3"}, "rice (Oryza sativa)": {"tested_on": "rice (Oryza sativa)", "assay": "Test B flooded paddy", "conditions": "Oryza sativa, 336 h; 250 g ai/ha, Flood, 13 to 15 days, scale 0 (no effect) to 100 (complete control); read-out: Plant response rating, Rice", "outline": "as §3"}}, "data": [{"smiles": "N#Cc1cccc(Oc2ncc(Cl)cn2)c1Oc1ccc(Br)cn1", "note": "[Compound 15]", "values": [{"measurement": "pest or weed control at 31 g/ha", "setting": "[1]; 31 g ai/ha", "value": 20, "unit": "%"}, {"measurement": "pest or weed control at 125 g/ha", "setting": "[1]; 125 g ai/ha", "value": 90, "unit": "%"}, {"measurement": "pest or weed control at 31 g/ha", "setting": "[2]; 31 g ai/ha", "value": 50, "unit": "%"}, {"measurement": "pest or weed control at 125 g/ha", "setting": "[2]; 125 g ai/ha", "value": 90, "unit": "%"}, {"measurement": "pest or weed control at 31 g/ha", "setting": "[3]; 31 g ai/ha", "value": 10, "unit": "%"}, {"measurement": "pest or weed control at 125 g/ha", "setting": "[3]; 125 g ai/ha", "value": 10, "unit": "%"}, {"measurement": "pest or weed control at 31 g/ha", "setting": "[4]; 31 g ai/ha", "value": 0, "unit": "%"}, {"measurement": "pest or weed control at 125 g/ha", "setting": "[4]; 125 g ai/ha", "value": 70, "unit": "%"}, {"measurement": "Corn plant response rating (crop injury, 0 = no effect, 100 = complete kill) at 31 g/ha", "setting": "corn (Zea mays); 31 g ai/ha", "value": 10, "unit": "%"}, {"measurement": "Corn plant response rating (crop injury, 0 = no effect, 100 = complete kill) at 125 g/ha", "setting": "corn (Zea mays); 125 g ai/ha", "value": 10, "unit": "%"}, {"measurement": "pest or weed control at 31 g/ha", "setting": "[5]; 31 g ai/ha", "value": 0, "unit": "%"}, {"measurement": "pest or weed control at 125 g/ha", "setting": "[5]; 125 g ai/ha", "value": 50, "unit": "%"}, {"measurement": "pest or weed control at 31 g/ha", "setting": "[6]; 31 g ai/ha", "value": 100, "unit": "%"}, {"measurement": "pest or weed control at 125 g/ha", "setting": "[6]; 125 g ai/ha", "value": 100, "unit": "%"}, {"measurement": "plant injury at 31 g/ha", "setting": "[7]; 31 g ai/ha", "value": 0, "unit": "%"}, {"measurement": "plant injury at 125 g/ha", "setting": "[7]; 125 g ai/ha", "value": 10, "unit": "%"}, {"measurement": "pest or weed control at 31 g/ha", "setting": "[8]; 31 g ai/ha", "value": 0, "unit": "%"}, {"measurement": "pest or weed control at 125 g/ha", "setting": "[8]; 125 g ai/ha", "value": 20, "unit": "%"}, {"measurement": "pest or weed control at 31 g/ha", "setting": "kochia (Kochia scoparia) [9]; 31 g ai/ha", "value": 40, "unit": "%"}, {"measurement": "pest or weed control at 125 g/ha", "setting": "kochia (Kochia scoparia) [9]; 125 g ai/ha", "value": 90, "unit": "%"}, {"measurement": "pest or weed control at 31 g/ha", "setting": "[10]; 31 g ai/ha, preemergence", "value": 80, "unit": "%"}, {"measurement": "pest or weed control at 62 g/ha", "setting": "[10]; 62 g ai/ha, preemergence", "value": 98, "unit": "%"}, {"measurement": "pest or weed control at 125 g/ha", "setting": "[10]; 125 g ai/ha, preemergence", "value": 95, "unit": "%"}, {"measurement": "pest or weed control at 16 g/ha", "setting": "[10]; Preemergence, 16 g ai/ha", "value": 70, "unit": "%"}, {"measurement": "pest or weed control at 31 g/ha", "setting": "[11]; 31 g ai/ha, preemergence, scale 0 to 100", "value": 25, "unit": "%"}, {"measurement": "pest or weed control at 62 g/ha", "setting": "[11]; 62 g ai/ha, preemergence, scale 0 to 100", "value": 70, "unit": "%"}, {"measurement": "pest or weed control at 125 g/ha", "setting": "[11]; 125 g ai/ha, preemergence, scale 0 to 100", "value": 98, "unit": "%"}, {"measurement": "pest or weed control at 16 g/ha", "setting": "[11]; Preemergence, 16 g ai/ha, scale 0 to 100 (0 no effect, 100 complete control)", "value": 10, "unit": "%"}, {"measurement": "pest or weed control at 31 g/ha", "setting": "[12]; 31 g ai/ha", "value": 60, "unit": "%"}, {"measurement": "pest or weed control at 125 g/ha", "setting": "[12]; 125 g ai/ha", "value": 100, "unit": "%"}, {"measurement": "pest or weed control at 31 g/ha", "setting": "[13]; 31 g ai/ha", "value": 0, "unit": "%"}, {"measurement": "pest or weed control at 125 g/ha", "setting": "[13]; 125 g ai/ha", "value": 0, "unit": "%"}, {"measurement": "pest or weed control at 31 g/ha", "setting": "[14]; 31 g ai/ha", "value": 0, "unit": "%"}, {"measurement": "pest or weed control at 125 g/ha", "setting": "[14]; 125 g ai/ha", "value": 10, "unit": "%"}, {"measurement": "pest or weed control at 31 g/ha", "setting": "[15]; 31 g ai/ha", "value": 80, "unit": "%"}, {"measurement": "pest or weed control at 125 g/ha", "setting": "[15]; 125 g ai/ha", "value": 100, "unit": "%"}, {"measurement": "pest or weed control at 31 g/ha", "setting": "[16]; 31 g ai/ha, 0 to 100 scale (0 no effect, 100 complete control), read-out: Barnyardgrass plant response rating", "value": 0, "unit": "%"}, {"measurement": "pest or weed control at 125 g/ha", "setting": "[16]; 125 g ai/ha, 0 to 100 scale, read-out: Plant response rating, Barnyardgrass", "value": 60, "unit": "%"}, {"measurement": "pest or weed control at 31 g/ha", "setting": "kochia (Kochia scoparia) [17]; 31 g ai/ha", "value": 90, "unit": "%"}, {"measurement": "pest or weed control at 125 g/ha", "setting": "kochia (Kochia scoparia) [17]; 125 g ai/ha", "value": 100, "unit": "%"}, {"measurement": "pest or weed control at 250 g/ha", "setting": "[18]", "value": 90, "unit": "%"}, {"measurement": "pest or weed control at 250 g/ha", "setting": "[19]", "value": 75, "unit": "%"}, {"measurement": "pest or weed control at 250 g/ha", "setting": "[20]", "value": 0, "unit": "%"}, {"measurement": "plant injury at 250 g/ha", "setting": "rice (Oryza sativa)", "value": 0, "unit": "%"}]}]}
